Experimental data as given in paper PMC5956543, “Antimicrobial and antioxidant activities of triterpenoid and phenolic derivatives from two Cameroonian Melastomataceae plants: Dissotis senegambiensis and Amphiblemma monticola” (BMC Complementary and Alternative Medicine, 2018).
≈ marks a conversion by molar mass, not a printed value.

Tests used:
C. albicans ATCC10231 = assay: Broth microdilution antimicrobial assay (MIC/MMC); assay type: cell-based, Candida albicans
Protocol: (§1) The microorganisms used in this study include four bacterial (Staphylococcus aureus ATCC25923, methicillin sensitive S. aureus MSSA1, methicillin resistant S. aureus MRSA3 and methicillin resistant S. aureus MRSA4) and three yeast strains (Candida albicans ATCC10231, Candida tropicalis PK233 and Cryptococcus neoformans H99). These microorganisms were taken from our laboratory collection. The fungal and bacterial strains were grown at 37 °C and maintained on Sabouraud Dextrose Agar (SDA, Conda, Madrid, Spain) and nutrient agar (NA, Conda) slants respectively.
(§2) The inocula of bacteria and yeasts were prepared from overnight cultures as previously described. Absorbance was read spectrophotometrically at 530 nm and 600 nm for yeasts and bacteria respectively. The final concentrations of microbial suspensions were 2.5 × 10^5 cells/mL for yeasts and 10^6 CFU/mL for bacteria.
(§3) The antimicrobial activity was evaluated by determining the minimum inhibitory concentrations (MICs). MICs of extracts and compounds were determined by broth micro dilution. Each test sample was dissolved in 10% v/v aqueous dimethylsulfoxide (DMSO) to give a stock solution. This was serially diluted two-fold in Mueller-Hinton Broth (MHB) for bacteria and Sabouraud Dextrose Broth (SDB) for fungi to obtain a concentration range of 4096 to 0.25 μg/mL. Then, 100 μL of each sample concentration was added to respective wells (96-well micro plate) containing 90 μL of SDB/ MHB and 10 μL of inoculum to give final concentration ranges of 2048 to 4 μg/mL (for extracts) and 256 to 0.125 μg/mL (for compounds). Dilutions of nystatin (Sigma-Aldrich, Steinheim, Germany) and ciprofloxacin (Sigma-Aldrich, Steinheim, Germany) were used as positive controls for yeasts and bacteria respectively. Broth with 10 μL of DMSO was used as negative control. The cultured micro plates were covered; then, the contents of each well were mixed thoroughly using a plate shaker (Flow Laboratory, Germany) and incubated at 37 °C for 24 h (bacteria) and 48 h (yeasts) under shaking. After the incubation period, MICs were assessed visually and were taken as the lowest sample concentration at which there was no growth or virtually no growth. The lowest concentration that yielded no growth after the sub-culturing was considered as the minimum microbicidal concentrations (MMCs). All the tests were performed in triplicate.

C. neoformans H99 = assay: Broth microdilution antimicrobial assay (MIC/MMC); assay type: cell-based, Cryptococcus neoformans
Protocol: as §1, §2, §3

yeast strains = assay: Broth microdilution MIC, range over the yeast strains; assay type: cell-based; conditions: range over the three yeast strains
Protocol: as §1, §2
The antimicrobial activity was evaluated by determining the minimum inhibitory concentrations (MICs). MICs of extracts and compounds were determined by broth micro dilution. Each test sample was dissolved in 10% v/v aqueous dimethylsulfoxide (DMSO) to give a stock solution. […] After the incubation period, MICs were assessed visually and were taken as the lowest sample concentration at which there was no growth or virtually no growth. […]

C. tropicalis PK233 = assay: Broth microdilution antimicrobial assay (MIC/MMC); assay type: cell-based, Candida tropicalis
Protocol: as §1, §2, §3

S. aureus ATCC25923 = assay: Broth microdilution antimicrobial assay (MIC/MMC); assay type: cell-based, Staphylococcus aureus
Protocol: as §1, §2, §3

S. aureus MRSA4 = assay: Broth microdilution antimicrobial assay (MIC/MMC); assay type: cell-based, Staphylococcus aureus
Protocol: as §1, §2, §3

S. aureus MSSA1 = assay: Broth microdilution antimicrobial assay (MIC/MMC); assay type: cell-based, Staphylococcus aureus
Protocol: as §1, §2, §3

S. aureus MRSA3 = assay: Broth microdilution antimicrobial assay (MIC/MMC); assay type: cell-based, Staphylococcus aureus
Protocol: as §1, §2, §3

[1] = tested on: bacterial and fungal strains; assay: Broth microdilution MIC, range over all tested strains; assay type: cell-based
Protocol: as §1, §2, §3

[2] = Staphylococcus aureus, 37 °C, 24 h
[3] = Staphylococcus aureus, 24 h, no growth after sub-culturing

Compound: O=c1oc2c(O)c(O)cc3c(=O)oc4c(O)c(O)cc1c4c23 [Compound 10, ellagic acid]
- MMC/MIC (C. albicans ATCC10231): 1
- MIC (C. albicans ATCC10231; Candida albicans, 37 °C, 48 h, read-out: MIC): 16 µg/mL (≈ 52.9 µM)
- MMC (C. albicans ATCC10231; no growth after sub-culturing): 16 µg/mL
- MMC/MIC (C. neoformans H99): 1
- MIC (C. neoformans H99; Cryptococcus neoformans, 37 °C, 48 h, read-out: MIC): 16 µg/mL (≈ 52.9 µM)
- MFC (C. neoformans H99; Cryptococcus neoformans, 48 h, no growth after sub-culturing): 16 µg/mL (≈ 52.9 µM)
- MIC (yeast strains): 8 to 16 µg/mL (≈ 26.5 to 52.9 µM)
- MMC/MIC (C. tropicalis PK233): 1
- MIC (C. tropicalis PK233; Candida tropicalis, 37 °C, 48 h, read-out: MIC): 8 µg/mL (≈ 26.5 µM)
- MFC (C. tropicalis PK233; Candida tropicalis, 48 h, no growth after sub-culturing): 8 µg/mL (≈ 26.5 µM)
- MMC/MIC (S. aureus ATCC25923): 2
- MIC (S. aureus ATCC25923; [2]): 8 µg/mL (≈ 26.5 µM)
- MBC (S. aureus ATCC25923; [3]): 16 µg/mL (≈ 52.9 µM)
- activity against methicillin-resistant S. aureus (in words) (S. aureus MRSA4; MRSA4): prominent activity
- MMC/MIC (S. aureus MRSA4; S. aureus MRSA4): 1
- MBC (S. aureus MRSA4; Staphylococcus aureus, 24 h, S. aureus MRSA4, no growth after sub-culturing): 32 µg/mL (≈ 106 µM)
- MIC (S. aureus MRSA4; Staphylococcus aureus, S. aureus MRSA4, 37 °C, 24 h): 32 µg/mL (≈ 106 µM)
- MMC/MIC (S. aureus MSSA1): 1
- MIC (S. aureus MSSA1; [2]): 16 µg/mL (≈ 52.9 µM)
- MBC (S. aureus MSSA1; [3]): 16 µg/mL (≈ 52.9 µM)
- activity against methicillin-resistant S. aureus (in words) (S. aureus MRSA3; MRSA3): prominent activity
- MMC/MIC (S. aureus MRSA3; S. aureus MRSA3): 2
- MBC (S. aureus MRSA3; Staphylococcus aureus, 24 h, S. aureus MRSA3, no growth after sub-culturing): 64 µg/mL (≈ 212 µM)
- MIC (S. aureus MRSA3; Staphylococcus aureus, S. aureus MRSA3, 37 °C, 24 h): 32 µg/mL (≈ 106 µM)
- antimicrobial activity (in words) ([1]; all the tested bacterial and fungal species): active against all the tested bacterial and fungal species
- MIC ([1]; range over all bacterial and fungal strains, read-out: MIC): 8 to 32 µg/mL (≈ 26.5 to 106 µM)
